# Marks after values point to notes of the source that are not given here.
# Columns and labels:
# [1] = tested on: model of allergic rhinitis in guinea pigs; assay: Clinical manifestations of allergic rhinitis in guinea pigs (sneezes, nose scratchings); format: in vivo, guinea pig; conditions: 14 mg/kg intragastric, 3 times; 2 hours after last ovalbumin; n = 8
# Description: (§1) The model of allergic rhinitis in guinea pigs was realized by a standard method [Vishnu N. Thakare, M. M. Osama, Suresh R. Naik. […] 2013 September; 17(1):18-25].
# (§2) Guinea pigs (250-300 g) were immunized with 4-time (on days 0, 7, 14, and 21) intragastric administration of ovalbumin (100 μg/pig) and aluminium hydroxide (5 mg/pig), both of which were diluted and suspended in a physiological saline solution. […], a solution of ovalbumin (60 mg/mL) was administered intranasally to each nostril of the animals at a dose 20 μL. On day 35, the animals received subcutaneously an ovalbumin solution (200 μg/mL, 25 μL); the animal back was previously shaved in the site of administration. Swelling and redness at the injection site served as a support of sensibilisation. On day 42 of the study, an ovalbumin solution (60 mg/mL, 20 μL/nostril) was administered intranasally. A group of pseudoimmunized animals was formed to control the formation of exactly allergic inflammation: on days 0, 7, 14, and 21, the pigs received a solution of aluminium hydroxide (5 mg/pig), and on days 28 and 35, they received a physiological saline solution, and on day 42, a solution of ovalbumin (60 mg/mL, 20 μL/nostril).
# (§3) The studied compounds (14 mg/kg) were administered 3 times by the intragastric route: 48, 24, and 1 hour before the last administration of ovalbumin. The reference preparation, dexamethasone, was administered one time by the intragastric route, 3 hours before the last intranasal administration of ovalbumin.
# (§4) Clinical manifestations, such as the number of sneezes and nose scratchings, were registered for 2 hours after the last administration of ovalbumin. Nasal lavage was taken 24 hours after the last administration of ovalbumin, and in this lavage, the total lymphocyte count and leukocyte formula were determined. The number of guinea pigs in a group was 8.
# [2] = tested on: model of bronchial asthma in guinea pigs; assay: Content of cell elements in BAL in the model of bronchial asthma in guinea pigs; format: in vivo, guinea pig; conditions: Table 4; 14 mg/kg, 10 times of administration; n = 9
# Description: Bronchial asthma in guinea pigs was induced by a standard method [Ricciardolo F L, Nijkamp F, De Rose V, Folkerts G. The guinea pig as an animal model for asthma// Current Drug Targets. 2008 June; 9(6):452-65]. The animals were immunized by one parenteral administration of 0.5 mL of a solution comprising 100 μg/mL ovalbumin (Sigma) and 100 mg/mL aluminium hydroxide. Intact animals received a physiological saline solution in an amount of 0.5 mL.
# On days 29, 30 and 31, hyperactivity of the respiratory airways was provoked by inhalation administration of ovalbumin in ascending concentrations of 0.1, 0.3, and 0.5 mg/mL on days 1, 2, and 3 of the provocation, respectively. The inhalation lasted 5 minutes or until asphyxia symptoms became apparent (fall to one side). On day 32, the animals received a challenging dose of ovalbumin (1 mg/mL) for 5 minutes, while assessing a bronchospastic reaction.
# The studied compounds were administered to the animals once daily every day for 6 or 10 days; the administration was terminated two days before the administration of the challenging dose of antigen.
# The bronchoalveolar lavage (BAL) and cardiac cavity blood were derived from the animals 24 hours after administration of the challenging dose. The BAL was collected under anesthesia by lavaging the lungs with 5 mL of a physiological saline solution heated to 37° C. through the trachea, using a syringe dosing device.
# The absolute number of cell elements in 1 μL of the lavage (cytosis) was counted in the bronchoalveolar lavage, using the Goryaev camera. Then, the BAL was centrifuged at 200 g for 10 minutes. The residue was used to prepare swabs that were fixed in methanol and stained according to Romanovsky-Giemsa to count endopulmonary cytogram.
# The study comprised 3 experiments, wherein the first one was directed to the evaluation of the effect of claimed compounds 1-6 on the cell composition of the BAL, the second and the third experiments were aimed at evaluating the effect of compounds 1 and 2 on the cell composition of the BAL, the cell composition of the blood, and on the bronchospasm severity.
# [3] = tested on: model of allergic rhinitis in guinea pigs; assay: Content of cell elements in the nasal lavage in the model of allergic rhinitis in guinea pigs; format: in vivo, guinea pig; conditions: 14 mg/kg intragastric, 3 times; nasal lavage 24 hours after last ovalbumin; n = 8
# Description: as §1, §2, §3, §4
# [4] = tested on: model of sephadex-induced eosinophilic lung inflammation in rats; assay: Content of cell elements in BAL in the model of sephadex-induced eosinophilic lung inflammation in rats; format: in vivo, male Wistar rats; conditions: Table 9, four times, BAL 48 hours after sephadex, n = 7
# Description: The model of sephadex-induced eosinophilic lung inflammation in rats was realized by a standard method [Evaldsson C, Rydén I, Uppugunduri S. Isomaltitol exacerbates neutrophilia but reduces eosinophilia: new insights into the sephadex model of lung inflammation//Int Arch Allergy Immunol. 2011; 154(4):286-94]. Sephadex G-200 (Pharmacia, Sweden) was administered one time by inhalation to male Wistar rats at a dose of 5 mg/kg. The studied compounds were administered to the animals by the intragastric route four times: 24 hours and 1 hour before and 24 hours and 45 hours after administration of sephadex. The reference preparation, budesonide, was administered according to the same scheme, by inhalation at a dose of 0.5 mg/kg. Bronchoalveolar lavage was taken 48 hours after the inhalation of sephadex, and the total lymphocyte count and leukocyte formula in the lavage were determined. The number of rats in a group was 7 to 10.
# [5] = tested on: model of leukotriene-induced eosinophilic lung inflammation in guinea pigs; assay: Content of cell elements in BAL in the model of leukotriene-induced eosinophilic lung inflammation in guinea pigs; format: in vivo, guinea pig; conditions: 0.8 mg/kg intragastric, one time one hour before LTD4 (reference preparation); BAL 48 hours after LTD4; n = 8
# From the text: The model of leukotriene-induced eosinophilic lung inflammation in guinea pigs was realized by a standard method [Underwood DC1, Osborn R R, Newsholme S J, Torphy T J, Hay D W. Persistent airway eosinophilia after leukotriene (LT) D4 administration in the guinea pig: modulation by the LTD4 receptor antagonist, pranlukast, or an interleukin-5 monoclonal antibody// Am J Respir Crit Care Med. 1996 October; 154(4 Pt 1):850-7]. A solution of leukotriene D4 (LTD4, Cayman Chemical, USA) at a concentration of […] (a flow rate of 250 mL/hr) was inhaled to male guinea pigs (250-300 g) under conditions of a double-chamber plethysmograph (Emka Technologies, France) for one minute. The studied compound was administered to the animals by the intragastric route four times: 24 hours and 1 hour before and 24 hours and 45 hours after the inhalation of LTD4. The reference preparation, montelukast (0.8 mg/kg), was administered one time by the intragastric route one hour before the inhalation of LTD4. Bronchoalveolar lavage was taken 48 hours after the inhalation of LTD4, and the total lymphocyte count and leukocyte formula were determined in the lavage. The number of guinea pigs in a group was 8.
smiles,measurement,setting,value
Cn1cnc(CCN2C(=O)CCCC2=O)c1 [Compound 5],Number of nose scratchings/2 hours,[1],19.1 ± 4.9 &
same,Number of sneezes/2 hours,[1],7.1 ± 1.3 &
same,Eosinophils in BAL,[2],1.61 ± 0.86*& 10^9/L
same,Lymphocytes in BAL,[2],1.35 ± 0.34* 10^9/L
same,Monocytes in BAL,[2],0.84 ± 0.23* 10^9/L
same,Neutrophils in BAL,[2],1.05 ± 0.33 10^9/L
same,"Eosinophils, content of cell elements in 1 μL of nasal lavage",[3],575 ± 143& in 1 μL of nasal lavage
same,"Leukocytes, content of cell elements in 1 μL of nasal lavage",[3],1071 ± 233& in 1 μL of nasal lavage
same,"Lymphocytes, content of cell elements in 1 μL of nasal lavage",[3],9 ± 7 in 1 μL of nasal lavage
same,"Macrophages, content of cell elements in 1 μL of nasal lavage",[3],198 ± 54 in 1 μL of nasal lavage
same,"Neutrophils, content of cell elements in 1 μL of nasal lavage",[3],344 ± 50& in 1 μL of nasal lavage
same,"Eosinophils, content of cell elements in 1 μL of BAL",[4]; 1.8 mg/kg intragastric,147 ± 44& in 1 μL of BAL
same,"Leukocytes, content of cell elements in 1 μL of BAL",[4]; 1.8 mg/kg intragastric,2064 ± 257& in 1 μL of BAL
same,"Lymphocytes, content of cell elements in 1 μL of BAL",[4]; 1.8 mg/kg intragastric,66 ± 26 in 1 μL of BAL
same,"Macrophages, content of cell elements in 1 μL of BAL",[4]; 1.8 mg/kg intragastric,1576 ± 93& in 1 μL of BAL
same,"Neutrophils, content of cell elements in 1 μL of BAL",[4]; 1.8 mg/kg intragastric,385 ± 57 in 1 μL of BAL
same,"Eosinophils, content of cell elements in 1 μL of BAL",[4]; 18 mg/kg intragastric,34 ± 15& in 1 μL of BAL
same,"Leukocytes, content of cell elements in 1 μL of BAL",[4]; 18 mg/kg intragastric,2189 ± 222& in 1 μL of BAL
same,"Lymphocytes, content of cell elements in 1 μL of BAL",[4]; 18 mg/kg intragastric,121 ± 48 in 1 μL of BAL
same,"Macrophages, content of cell elements in 1 μL of BAL",[4]; 18 mg/kg intragastric,1331 ± 66 & in 1 μL of BAL
same,"Neutrophils, content of cell elements in 1 μL of BAL",[4]; 18 mg/kg intragastric,605 ± 124 in 1 μL of BAL
"CC(C)(O)c1ccccc1CC[C@@H](SCC1(CC(=O)O)CC1)c1cccc(/C=C/c2ccc3ccc(Cl)cc3n2)c1 [Montelukast, montelukast, reference compound]","Eosinophils, content of cell elements in 1 μL of BAL",[5],618 ± 116*& in 1 μL of BAL
same,"Leukocytes, content of cell elements in 1 μL of BAL",[5],24065 ± 415*& in 1 μL of BAL
same,"Lymphocytes, content of cell elements in 1 μL of BAL",[5],96 ± 39 in 1 μL of BAL
same,"Macrophages, content of cell elements in 1 μL of BAL",[5],1519 ± 263 in 1 μL of BAL
same,"Neutrophils, content of cell elements in 1 μL of BAL",[5],173 ± 41 in 1 μL of BAL

# — US10220029B2, “Pharmaceutical composition comprising glutarimide derivatives and use thereof in the treatment of eosinophilic diseases” (OBSCHESTVO S ORGANICHENNOI OTVETSTVENNOSTIYU …, priority 2013, dated 2019)
